Measurements reported in ChEMBL document CHEMBL5338790, “Discovery of Subcellular-Targeted Aza-BODIPY Photosensitizers for Efficient Photodynamic Antitumor Therapy” (J Med Chem, 2023).
Active and inactive are the calls of the source. The rule behind the calls is not given here.

Legend:
HeLa [1] = experiment: Photodynamic cytotoxicity against human HeLa cells assessed as inhibition of cell viability incubated for 3 hrs followed by photo-irradiation at 54 J/cm2 measured after 24 hrs by CCK8 assay; assay type: functional, cell-based; details: light or radiation study
HeLa [2] = experiment: Induction of apoptosis in human HeLa cells assessed as viable cells at 12.5 nM incubated for 3 hrs with photo-irradiation at 54 J/cm2 by Annexin V-FITC/PI staining based flow cytometry relative to control; assay type: functional; details: light or radiation study, read-out: Activity
HepG2 = experiment: Photodynamic cytotoxicity against human HepG2 cells assessed as inhibition of cell viability incubated for 3 hrs followed by photo-irradiation at 54 J/cm2 measured after 24 hrs by CCK8 assay; assay type: functional, cell-based; details: HepG2, light or radiation study
[3] = Drug distribution in tumor of Balb/C nu/nu mouse xenografted with human HeLa cells at 2.5 umol/kg, iv measured for 24 hr by IVIS imaging analysis; assay type: ADME, organism-based, Neoplasm; details: in vivo, dose 2.5 µmol/kg
[4] = Drug distribution in Balb/C nu/nu mouse xenografted with human HeLa cells at 2.5 umol/kg, iv measured for 1 hr by IVIS imaging analysis; assay type: ADME, organism-based; details: in vivo, dose 2.5 µmol/kg
HeLa [5] = experiment: Induction of ROS production in human HeLa cells upto 200 nM preincubated for 2 hrs followed by H2DCFDA probe exposure for 30 mins and subsequent removal of probe by confocal scanning microscopic analysis; assay type: functional, cell-based; details: time 2.5 hrs
[6] = Drug distribution in liver of Balb/C nu/nu mouse xenografted with human HeLa cells at 2.5 umol/kg, iv measured for 1 hr by IVIS imaging analysis; assay type: ADME, organism-based; details: in vivo, dose 2.5 µmol/kg
[7] = Drug uptake in human HeLa cells at 5 uM by confocal scanning microscopy; assay type: ADME, cell-based; details: 3 h, TDE = time-dependent effect
HUVEC = experiment: Photodynamic cytotoxicity against HUVEC cells assessed as inhibition of cell viability incubated for 3 hrs followed by photo-irradiation at 54 J/cm2 measured after 24 hrs by CCK8 assay; assay type: functional, cell-based; details: Homo sapiens, light or radiation study
HeLa [8] = experiment: Antitumor activity against human HeLa cells xenografted in Balb/C nu/nu mouse assessed as tumor growth inhibition at 2.5 umol/kg, iv with photo-irradiation at 30 J/cm2 after 1 hr of compound administration measured for 24 days; assay type: functional, organism-based; details: dose 2.5 µmol/kg, time 24.0 day
HeLa [9] = experiment: Induction of ROS production in human HeLa cells upto 200 nM preincubated for 2 hrs followed by H2DCFDA probe exposure for 30 mins and subsequent removal of probe with photo-irradiation at 16 J/cm2 by confocal scanning microscopic analysis; assay type: functional, cell-based; details: time 2.5 hrs
HeLa [10] = experiment: Induction of apoptosis in human HeLa cells assessed as early apoptotic cells at 50 nM incubated for 3 hrs with photo-irradiation at 54 J/cm2 by Annexin V-FITC/PI staining based flow cytometry relative to control; assay type: functional
[11] = Drug accumulation in tumor of Balb/C nu/nu mouse xenografted with human HeLa cells at 2.5 umol/kg, iv measured for 3 hrs by IVIS imaging analysis; assay type: ADME, organism-based, Neoplasm; details: in vivo, dose 2.5 µmol/kg
[12] = Toxicity in Balb/C nu/nu mouse xenografted with human HeLa cells assessed as change in kidney histology at 2.5 umol/kg, iv with photo-irradiation at 30 J/cm2 after 1 hr of compound administration measured after 24 days by H and E staining based analysis; assay type: organism-based; details: in vivo, 576 h, dose 2.5 µmol/kg, time 24 day
[13] = Toxicity in Balb/C nu/nu mouse xenografted with human HeLa cells assessed as change in lung histology at 2.5 umol/kg, iv with photo-irradiation at 30 J/cm2 after 1 hr of compound administration measured after 24 days by H and E staining based analysis; assay type: organism-based; details: in vivo, 576 h, dose 2.5 µmol/kg, time 24 day
[14] = Drug distribution in spleen of Balb/C nu/nu mouse xenografted with human HeLa cells at 2.5 umol/kg, iv measured for 1 hr by IVIS imaging analysis; assay type: ADME, organism-based; details: in vivo, dose 2.5 µmol/kg
[15] = Toxicity in Balb/C nu/nu mouse xenografted with human HeLa cells assessed as change in heart histology at 2.5 umol/kg, iv with photo-irradiation at 30 J/cm2 after 1 hr of compound administration measured after 24 days by H and E staining based analysis; assay type: organism-based; details: in vivo, 576 h, dose 2.5 µmol/kg, time 24 day
[16] = Drug distribution in heart of Balb/C nu/nu mouse xenografted with human HeLa cells at 2.5 umol/kg, iv measured for 1 hr by IVIS imaging analysis; assay type: ADME, organism-based; details: in vivo, dose 2.5 µmol/kg
HeLa [17] = experiment: Induction of apoptosis in human HeLa cells assessed as necrotic cells at 50 nM incubated for 3 hrs with photo-irradiation at 54 J/cm2 by Annexin V-FITC/PI staining based flow cytometry relative to control; assay type: functional
HeLa [18] = experiment: Induction of apoptosis in human HeLa cells assessed as early apoptotic cells at 12.5 nM incubated for 3 hrs with photo-irradiation at 54 J/cm2 by Annexin V-FITC/PI staining based flow cytometry relative to control; assay type: functional
[19] = Drug distribution in lungs of Balb/C nu/nu mouse xenografted with human HeLa cells at 2.5 umol/kg, iv measured for 24 hr by IVIS imaging analysis; assay type: ADME, organism-based, Lung; details: in vivo, dose 2.5 µmol/kg
HeLa [20] = experiment: Induction of apoptosis in human HeLa cells assessed as early apoptotic cells at 100 nM incubated for 3 hrs by Annexin V-FITC/PI staining based flow cytometry relative to control; assay type: toxicity, cell-based; details: 0.1 µM
[21] = Cytotoxicity against human HepG2 cells assessed as inhibition of cell viability under dark condition incubated for 27 hrs by CCK8 assay; assay type: toxicity, cell-based
[22] = Cytotoxicity against HUVEC cells assessed as inhibition of cell viability under dark condition incubated for 27 hrs by CCK8 assay; assay type: toxicity, cell-based; details: human
HeLa [23] = experiment: Induction of apoptosis in human HeLa cells assessed as late apoptotic cells at 25 nM incubated for 3 hrs with photo-irradiation at 54 J/cm2 by Annexin V-FITC/PI staining based flow cytometry relative to control; assay type: functional
HeLa [24] = experiment: Antitumor activity against human HeLa cells xenografted in Balb/C nu/nu mouse assessed as reduction in tumor histology at 2.5 umol/kg, iv with photo-irradiation at 30 J/cm2 after 1 hr of compound administration measured after 24 days by H and E staining based analysis; assay type: functional, organism-based; details: dose 2.5 µmol/kg, time 24.0 day
[25] = Cytotoxicity against human HeLa cells assessed as inhibition of cell viability under dark condition incubated for 27 hrs by CCK8 assay; assay type: toxicity, cell-based
[26] = Drug uptake in human HeLa cells at 5 uM incubated for 3 hrs by confocal scanning microscopy; assay type: ADME, cell-based
[27] = Drug distribution in Balb/C nu/nu mouse xenografted with human HeLa cells at 2.5 umol/kg, iv measured for 24 hr by IVIS imaging analysis; assay type: ADME, organism-based; details: in vivo, dose 2.5 µmol/kg
[28] = Drug distribution in heart of Balb/C nu/nu mouse xenografted with human HeLa cells at 2.5 umol/kg, iv measured for 24 hr by IVIS imaging analysis; assay type: ADME, organism-based; details: in vivo, dose 2.5 µmol/kg
[29] = Toxicity in Balb/C nu/nu mouse xenografted with human HeLa cells assessed as change in liver histology at 2.5 umol/kg, iv with photo-irradiation at 30 J/cm2 after 1 hr of compound administration measured after 24 days by H and E staining based analysis; assay type: organism-based; details: in vivo, 576 h, dose 2.5 µmol/kg, time 24 day
HeLa [30] = experiment: Induction of apoptosis in human HeLa cells assessed as increase in percentage of apoptosis/necrosis at 100 nM incubated for 3 hrs with photo-irradiation at 54 J/cm2 by Annexin V-FITC/PI staining based flow cytometry relative to control; assay type: functional

Work on COc1ccc2c(c1)CCc1c(-c3ccccc3)c3n(c1-2)[B-](F)(F)[N+]1=C(c2ccc(OCC(=O)NCCCN4CCOCC4)cc2)C(I)=C(c2ccccc2)C1=N3 yielded an IC50 (HeLa [1]) of 0.0021 µM, a viability at 0.0125 µM (HeLa [2]) of 88.1% and an IC50 (HepG2) of 0.0061 µM. For the same compound, the Drug uptake [3] was “Not Active”, the Drug uptake [4] was “Active” and the Activity (HeLa [5]) was “inactive”. The Drug uptake [6] was “Active”, the Drug uptake [7] was “Tde” and the IC50 (HUVEC) was 0.0119 µM. The Activity (HeLa [8]) was “Active”, the Activity (HeLa [9]) was “Active” and the Activity (HeLa [10]) was 58.93%. The Drug uptake [11] was “Active”, the Activity [12] was “Non-Toxic” and the Activity [13] was “Non-Toxic”. For the same compound, the Drug uptake [14] was “Active”, the Activity [15] was “Non-Toxic” and the Drug uptake [16] was “Active”. The Activity (HeLa [17]) was 2.08%, the Activity (HeLa [18]) was 5.28% and the Drug uptake [19] was “Not Active”. For the same compound, the Activity (HeLa [20]) was 1.52%, the IC50 at 27 h [21] was over 50 µM and the IC50 at 27 h [22] was over 50 µM. The Activity (HeLa [23]) was 12.87%, the Activity (HeLa [24]) was “Active” and the IC50 at 27 h [25] was over 50 µM. The Drug uptake [26] was “Active”, the Drug uptake [27] was “Not Active” and the Drug uptake [28] was “Not Active”. The Activity [29] was “Non-Toxic” and the Activity (HeLa [30]) was 64.6%.
